Laboratory results published in patent US9115143B2, “Substituted indole derivatives as gamma secretase modulators” (Janssen Pharmaceuticals, Inc., priority 2011, dated 2015).

Columns and labels:
Aβ42 = assay: In vivo efficacy B-1a: brain soluble Aβ42 in non-transgenic rodents, ELISA; design: species or system mouse; conditions: dose 30 mg/kg oral dosing, brain soluble fraction, untreated animals (Ctrl) set at 100; for response vs control in vivo at 30 mg/kg: Mus musculus, po, read-out: Aβ42 (% vs Ctrl)_Mean
Description: (§1) To determine whether acute administration of an Aβ42 lowering agent would reduce Aβ42 levels in vivo, non-transgenic rodents, e.g. mice or rats were used. Animals treated with the Aβ42 lowering agent were examined and compared to those untreated or treated with vehicle and brain levels of soluble Aβ42 and total Aβ were quantitated by standard techniques, for example, using ELISA. Treatment periods varied from hours (h) to days and were adjusted based on the results of the Aβ42 lowering once a time course of onset of effect could be established.
(§2) A typical protocol for measuring Aβ42 lowering in vivo is shown but it is only one of many variations that could be used to optimize the levels of detectable Aβ. For example, Aβ42 lowering compounds were formulated in 20% of Captisol® (a sulfobutyl ether of β-cyclodextrin) in water or 20% hydroxypropyl β cyclodextrin. The Aβ42 lowering agents were administered as a single oral dose or by any acceptable route of administration to overnight fasted animals. After 4 h, the animals were sacrificed and Aβ42 levels were analysed.
(§3) Blood was collected by decapitation and exsanguinations in EDTA-treated collection tubes. Blood was centrifuged at 1900 g for 10 minutes (min) at 4° C. and the plasma recovered and flash frozen for later analysis. The brain was removed from the cranium and hindbrain. The cerebellum was removed and the left and right hemisphere were separated. The left hemisphere was stored at −18° C. for quantitative analysis of test compound levels. The right hemisphere was rinsed with phosphate-buffered saline (PBS) buffer and immediately frozen on dry ice and stored at −80° C. until homogenization for biochemical assays.
(§4) Mouse brains from non-transgenic animals were resuspended in 8 volumes of 0.4% DEA (diethylamine)/50 mM NaCl containing protease inhibitors (Roche-11873580001 or 04693159001) per gram of tissue, e.g. for 0.158 g brain, add 1.264 mL of 0.4% DEA. All samples were homogenized in the FastPrep-24 system (MP Biomedicals) using lysing matrix D (MPBio #6913-100) at 6 m/s for 20 seconds. Homogenates were centrifuged at 20800×g for 5 min and supernatants collected. Supernatants were centrifuged at 221.300×g for 50 min. The resulting high speed supernatants were then transferred to fresh eppendorf tubes. Nine parts of supernatant were neutralized with 1 part 0.5 M Tris-HCl pH 6.8 and used to quantify Aβtotal and Aβ42.
To quantify the amount of Aβtotal and Aβ42 in the soluble fraction of the brain homogenates, Enzyme-Linked-Immunosorbent-Assays were used. Briefly, the standards (a dilution of synthetic Aβ1-40 and Aβ1-42, Bachem) were prepared in 1.5 mL Eppendorf tube in Ultraculture, with final concentrations ranging from 10000 to 0.3 pg/mL. The samples and standards were co-incubated with HRPO-labelled N-terminal antibody JRF/rAμ/2 for Aβ42 detection and with the biotinylated mid-domain antibody 4G8 for Aβtotal detection. 50 μl of conjugate/sample or conjugate/standards mixtures were then added to the antibody-coated plate (the capture antibodies selectively recognize the C-terminal end of Aβ42, antibody JRF/cAβ42/26, for Aβ42 detection and the N-terminus of AB, antibody JRF/rAβ/2, for Aβtotal detection). The plate was allowed to incubate overnight at 4° C. in order to allow formation of the antibody-amyloid complex. Following this incubation and subsequent wash steps the ELISA for Aβ42 quantification was finished by addition of Quanta Blu fluorogenic peroxidase substrate according to the manufacturer's instructions (Pierce Corp., Rockford, Ill.). A reading was performed after 10 to 15 min (excitation 320 nm/emission 420 nm).
In this model a Aβ42 lowering compared to untreated animals would be advantageous, in particular a Aβ42 lowering with at least 10%, more in particular a Aβ42 lowering with at least 20%.
The results are shown in Table 4 (dose 30 mg/kg oral dosing) (value for untreated animals as control (Ctrl) was set at 100): […]

Aβ38 = assay: In vivo efficacy B-2a: brain soluble Aβ38 in non-transgenic rodents, ELISA; design: species or system mouse; conditions: dose 30 mg/kg oral dosing, brain soluble fraction, untreated animals (Ctrl) set at 100; for response vs control in vivo at 30 mg/kg: Mus musculus, po, read-out: Aβ38 (% vs Ctrl)_Mean
Description: Aβ38 increasing agents can be administered in any standard form using any standard method. For example, but not limited to, Aβ38 increasing agents can be in the form of liquid, tablets or capsules that are taken orally or by injection.
as §1, with “Aβ38 increasing agents” for “Aβ42 lowering agent”, “increase Aβ38” for “reduce Aβ42”, “Aβ38” for “Aβ42”, “Aβ38 increase” for “Aβ42 lowering”
as §2, with “measuring Aβ38 increase” for “measuring Aβ42 lowering”, “example, Aβ38 increasing agents” for “example, Aβ42 lowering compounds”, “The Aβ38 increasing” for “The Aβ42 lowering”, “and Aβ38” for “and Aβ42”
as §3
as §4, with “Aβ38.” for “Aβ42.”
To quantify the amount of Aβtotal and Aβ38 in the soluble fraction of the brain homogenates, Enzyme-Linked-Immunosorbent-Assays were used. Briefly, the standards (a dilution of synthetic Aβ1-40 and Aβ1-38, ANASPEC) were prepared in 1.5 mL Eppendorf tube in Ultraculture, with final concentrations ranging from 10000 to 0.3 pg/mL. The samples and standards were co-incubated with HRPO-labelled N-terminal antibody for Aβ38 detection and with the biotinylated mid-domain antibody 4G8 for Aβtotal detection. 50 μl of conjugate/sample or conjugate/standards mixtures were then added to the antibody-coated plate (the capture antibodies selectively recognize the C-terminal end of Aβ38, antibody J&JPRD/Aβ38/5, for Aβ38 detection and the N-terminus of Aβ, antibody JRF/rAβ/2, for Aβtotal detection). The plate was allowed to incubate overnight at 4° C. in order to allow formation of the antibody-amyloid complex. Following this incubation and subsequent wash steps the ELISA for Aβ38 quantification was finished by addition of Quanta Blu fluorogenic peroxidase substrate according to the manufacturer's instructions (Pierce Corp., Rockford, Ill.). A reading was performed after 10 to 15 min (excitation 320 nm/emission 420 nm). […]

SMILES	response vs control in vivo at 30 mg/kg (Aβ42) [%]	response vs control in vivo at 30 mg/kg (Aβ38) [%]	Aβ42 (% vs Ctrl)_Mean (Aβ42; 30 mg/kg) [% vs Ctrl]	Aβ38 (% vs Ctrl)_Mean (Aβ38; 30 mg/kg) [% vs Ctrl]
Cc1cn(-c2ccc3[nH]c(-c4nc5n(n4)CCCC5c4ccc(F)cc4C)cc3n2)cn1 (centres unmarked) [Compound 65, 8-(4-fluoro-2-methylphenyl)-5,6,7,8-tetrahydro-2-[5-(4-methyl-1H-imidazol-1-yl)-1H-pyrrolo[3,2-b]pyridin-2-yl]-[1,2,4]triazolo[1,5-a]pyridine]	82	101	–	–
Cc1cc(F)ccc1C1CCCn2nc(-c3cc4nc(-c5cnn(C)c5)ccc4[nH]3)nc21 (centres unmarked) [Compound 69, 8-(4-fluoro-2-methylphenyl)-5,6,7,8-tetrahydro-2-[5-(1-methyl-1H-pyrazol-4-yl)-1H-pyrrolo[3,2-b]pyridin-2-yl]-[1,2,4]triazolo[1,5-a]pyridine]	83	106	–	–
Cc1cn(-c2cc3cc(-c4nc5n(n4)CCCC5c4ccc(F)cc4C)[nH]c3cn2)cn1 (centres unmarked) [Compound 71, 8-(4-fluoro-2-methylphenyl)-5,6,7,8-tetrahydro-2-[5-(4-methyl-1H-imidazol-1-yl)-1H-pyrrolo[2,3-c]pyridin-2-yl]-[1,2,4]triazolo[1,5-a]pyridine]	108	115	–	–
Cc1cn(-c2ccc3[nH]c(-c4nc5n(n4)CCCC5c4ccc(F)cc4C)cc3c2)cn1 (centres unmarked) [Compound 73, 8-(4-fluoro-2-methylphenyl)-5,6,7,8-tetrahydro-2-[5-(4-methyl-1H-imidazol-1-yl)-1H-indol-2-yl]-[1,2,4]triazolo[1,5-a]pyridine]	43	120	–	–
COc1c(C#N)ccc2[nH]c(-c3cn4c(n3)C(c3ccc(F)cc3C)CCC4)cc12 (centres unmarked) [Compound 74, 2-[8-(4-fluoro-2-methylphenyl)-5,6,7,8-tetrahydroimidazo[1,2-a]pyridin-2-yl]-4-methoxy-1H-indole-5-carbonitrile]	49	117	–	–
COc1c(-c2cnn(C)c2)ccc2[nH]c(-c3cn4c(n3)C(c3ccc(F)cc3C)OCC4)cc12 (centres unmarked) [Compound 96, 8-(4-fluoro-2-methylphenyl)-5,6-dihydro-2-[4-methoxy-5-(1-methyl-1H-pyrazol-4-yl)-1H-indol-2-yl]-8H-imidazo[2,1-c][1,4]oxazine]	55	124	–	–
Cc1cc(F)ccc1C1OCCn2cc(-c3cc4cc(-c5cnn(C)c5)ccc4[nH]3)nc21 (centres unmarked) [Compound 99, 8-(4-fluoro-2-methylphenyl)-5,6-dihydro-2-[5-(1-methyl-1H-pyrazol-4-yl)-1H-indol-2-yl]-8H-imidazo[2,1-c][1,4]oxazine]	63	96	–	–
COc1c(C#N)ccc2[nH]c(-c3nc4n(n3)CCOC4c3ccc(F)cc3C)cc12 (centres unmarked) [Compound 111, 2-[8-(4-fluoro-2-methylphenyl)-5,6-dihydro-8H-[1,2,4]triazolo[5,1-c][1,4]oxazin-2-yl]-4-methoxy-1H-indole-5-carbonitrile]	87	107	–	–
COc1c(C#N)ccc2[nH]c(-c3nc4n(n3)CCOC4c3ccc(F)cc3C)cc12 (centres unmarked) [Compound 114, 2-[8-(4-fluoro-2-methylphenyl)-5,6-dihydro-8H-[1,2,4]triazolo[5,1-c][1,4]oxazin-2-yl]-4-methoxy-1H-indole-5-carbonitrile]	–	–	95	88
Cc1cn(-c2ccc3[nH]c(-c4nc5n(n4)CCCC5c4ccc(F)cc4C)nc3c2)cn1 (centres unmarked) [Compound 176, 8-(4-fluoro-2-methylphenyl)-5,6,7,8-tetrahydro-2-[5-(4-methyl-1H-imidazol-1-yl)-1H-benzimidazol-2-yl]-[1,2,4]triazolo[1,5-a]pyridine]	93	93	–	–
